Reference: the NIST ThermoML archive (doi:10.1016/j.jct.2005.02.014)

Test: molar heat capacity at constant pressure
Details: 101.33 kPa, Crystal

[Gd+3].[Gd+3].[O-2].[O-2].[O-2] [gadolinium sesquioxide]
Details	molar heat capacity at constant pressure [J/K/mol]
5.34 K	4.24
5.84 K	5.88
6.65 K	6.66
8.48 K	4.7
10.16 K	3.95
11.17 K	3.51
11.58 K	3.33
13.24 K	3.19
13.72 K	3.18
14.69 K	3.17
15.56 K	3.2
15.84 K	3.18
16.98 K	3.47
17.06 K	3.5
18.14 K	3.76
18.46 K	3.8
19.29 K	4.28
19.86 K	4.28
20 K	4.32
20.63 K	4.51
21.24 K	4.73
21.97 K	5.08
22.65 K	5.27
23.31 K	5.65
23.91 K	5.87
24.66 K	6.36
25 K	6.55
25.22 K	6.67
26.02 K	7.26
26.08 K	7.21
26.79 K	7.55
27.33 K	7.65
27.99 K	7.92
28.5 K	8.29
29.64 K	8.93
30 K	9.163
31.19 K	9.927
32.73 K	10.96
34.3 K	11.95
35 K	12.42
35.9 K	13.02
37.53 K	13.85
39.19 K	14.85
40 K	15.35
40.87 K	15.9
42.55 K	17.06
44.25 K	18.21
45 K	18.7
45.96 K	19.33
47.7 K	20.45
49.45 K	21.55
50 K	21.9
51.21 K	22.67
52.99 K	23.75
54.78 K	24.86
56.58 K	26
58.39 K	27.1
60 K	28.03
60.22 K	28.16
62.05 K	29.26
63.89 K	30.33
65.75 K	31.37
67.61 K	32.46
69.47 K	33.54
70 K	33.85
71.35 K	34.62
73.23 K	35.69
75.12 K	36.68
77.01 K	37.74
78.91 K	38.79
80 K	39.37
80.81 K	39.79
82.72 K	40.83
83.39 K	41.24
84.63 K	41.9
85.99 K	42.64
86.55 K	42.9
88.47 K	43.84
88.8 K	44.12
90 K	44.63
90.39 K	44.82
91.62 K	45.57
92.32 K	45.88
93.14 K	46.35
93.67 K	46.53
94.25 K	46.87
94.44 K	46.97
94.91 K	47.23
96.18 K	47.87
96.86 K	48.18
97.27 K	48.4
98.12 K	48.9
98.79 K	49.39
100 K	50.12
100.06 K	50.15
100.11 K	50.21
100.72 K	50.42
102.65 K	51.08
102.97 K	51.17
104.58 K	51.98
105.83 K	52.6
106.52 K	53
108.46 K	54.02
108.7 K	54.13
110.4 K	54.87
111.58 K	55.27
112.35 K	55.75
114.3 K	56.56
114.46 K	56.66
116.25 K	57.42
117.35 K	57.9
118.2 K	58.29
120 K	58.58
120.15 K	58.66
120.24 K	58.72
122.11 K	59.91
123.15 K	60.56
124.07 K	60.93
126.02 K	61.79
126.04 K	61.82
127.98 K	62.72
128.94 K	63.08
129.95 K	63.54
131.83 K	64.33
131.91 K	64.31
133.87 K	65.17
134.73 K	65.5
135.84 K	65.98
137.64 K	66.69
137.81 K	66.76
139.77 K	67.58
140 K	67.66
140.55 K	67.86
141.74 K	68.33
143.47 K	69
143.71 K	69.08
145.68 K	69.88
146.39 K	70.15
147.65 K	70.61
149.31 K	71.26
149.62 K	71.38
151.6 K	72.1
152.23 K	72.33
153.57 K	72.82
155.16 K	73.39
155.55 K	73.55
157.52 K	74.24
158.09 K	74.43
159.5 K	74.94
160 K	75.12
161.02 K	75.46
161.47 K	75.6
163.45 K	76.3
163.95 K	76.42
165.43 K	76.95
166.88 K	77.42
167.41 K	77.62
169.38 K	78.25
169.82 K	78.4
171.36 K	78.94
172.76 K	79.32
173.34 K	79.5
175.32 K	80.12
175.7 K	80.25
177.31 K	80.7
178.65 K	81.16
179.29 K	81.37
180 K	81.58
181.27 K	81.94
181.59 K	82.04
183.25 K	82.48
184.54 K	82.86
185.23 K	83.08
187.21 K	83.64
187.49 K	83.73
189.2 K	84.23
190.44 K	84.56
191.18 K	84.81
193.16 K	85.14
193.39 K	85.31
195.15 K	85.81
196.34 K	86.05
197.13 K	86.3
199.11 K	86.89
199.29 K	86.89
200 K	87.05
201.1 K	87.39
202.24 K	87.63
203.08 K	87.88
205.07 K	88.38
205.19 K	88.38
207.05 K	88.8
208.15 K	89.05
209.04 K	89.3
211.03 K	89.8
211.11 K	89.8
213.01 K	90.21
214.07 K	90.46
215 K	90.71
216.99 K	91.13
217.03 K	91.13
218.97 K	91.54
219.98 K	91.79
220 K	91.79
220.96 K	92.04
222.94 K	92.46
222.95 K	92.46
224.93 K	92.87
225.89 K	93.04
226.92 K	93.29
228.85 K	93.7
228.91 K	93.62
230.9 K	94.12
231.81 K	94.2
232.89 K	94.45
234.77 K	94.87
234.87 K	94.87
236.86 K	95.28
237.72 K	95.45
238.17 K	95.62
238.8 K	95.53
240 K	95.87
240.35 K	95.95
240.69 K	95.95
242.83 K	96.36
243.65 K	96.53
245.3 K	96.78
246.61 K	97.03
247.77 K	97.28
249.58 K	97.53
250.25 K	97.61
252.54 K	98.11
252.72 K	98.11
255.2 K	98.19
255.52 K	98.28
257.67 K	98.78
258.49 K	98.86
260 K	99.11
260.15 K	99.19
261.46 K	99.44
262.63 K	99.61
264.43 K	99.86
265.1 K	100
267.4 K	100.4
267.57 K	100.4
270.05 K	100.8
270.36 K	100.9
272.53 K	101.2
273.33 K	101.3
275.01 K	101.6
276.31 K	101.8
277.49 K	102
279.28 K	102.3
279.96 K	102.3
280 K	102.3
282.25 K	102.7
282.44 K	102.6
284.92 K	103
285.23 K	103.1
287.4 K	103.4
288.2 K	103.5
289.88 K	103.8
291.17 K	104
292.35 K	104.1
294.15 K	104.4
294.83 K	104.5
297.13 K	105
297.32 K	105
298.15 K	105.1
299.8 K	105.2
300 K	105.2
300.11 K	105.2
302.28 K	105.4
303.09 K	105.6
304.77 K	105.6
304.91 K	105.8
306.07 K	106
307.26 K	106
307.89 K	106.2
309.06 K	106.4
309.74 K	106.4
310.86 K	106.6
312.04 K	106.7
312.23 K	106.7
313.84 K	106.8
314.72 K	106.9
315.03 K	107
316.82 K	107.2
317.21 K	107.2
318.02 K	107.3
319.7 K	107.4
319.8 K	107.6
320 K	107.6
321.01 K	107.7
322.19 K	107.8
322.77 K	108
324 K	108.1
324.68 K	108.2
325.75 K	108.3
326.99 K	108.4
327.18 K	108.3
329.67 K	108.6
331.72 K	108.9
334.69 K	109.2
337.67 K	109.5
340 K	109.7
340.65 K	109.8
343.63 K	110
346.62 K	110.3
349.6 K	110.6
352.59 K	110.8
355.58 K	111.1
358.57 K	111.4
360 K	111.5
361.56 K	111.6
364.55 K	111.9
367.55 K	112
370.55 K	112.2
373.55 K	112.5
376.55 K	112.7
379.55 K	113
380 K	113
382.56 K	113.2
385.56 K	113.4
388.57 K	113.6
391.59 K	113.8
394.6 K	113.9
397.62 K	114
400.65 K	114.2
